Laboratory results: US20240343754A1, “7-SUBSTITUTED 7-DEAZAADENINE-CONTAINING 2',3'-CYCLIC DINUCLEOTIDES” (USTAV ORGANICKE CHEMIE A BIOCHEMIE AV CR, V. V. I., priority 2021, published 2024)
Where two headings read alike, the source gives them in different places.

Columns and labels:
[1] = Cytotoxic effect on PBMCs (CellTiter-Glo Luminescent Cell Viability Assay); format: cell-based; details: human, 16 h incubation, mean from three different PBMC donors
Experimental: Briefly, buffy coats were obtained from the Institute of Hematology and Blood Transfusion (Prague, Czech Republic). Informed written consent was signed by each volunteer. Isolation of PBMCs was performed on Ficoll density gradient centrifugation (Ficoll Paque Plus, GE Healthcare, USA) in SepMate tubes (SepMate PBMC Isolation Tubes, Stemcell Technologies, Canada). Obtained PBMCs were washed using PBS with 2 mM EDTA, and then seeded onto 96-well U-shape plates at density 500,000 cells per well in RPMI 1640 media with 10% (v/v) heat inactivated FBS. Serially diluted CDNs were added to cells and cells were incubated for 16 h (37° C., 5% CO2). After incubation, medium was collected to determine levels of INFα and INFγ using ProcartaPlex Assays and MAGPIX System (Merck, Germany) according to the manufacturer's instructions. Cytotoxic effect of CDNs on PBMCs was determined using CellTiter-Glo® Luminescent Cell Viability Assay (Promega Corporation, USA) according to manufacturer's instruction.

[2] = test system: Peripheral blood mononuclear cells (PBMC); assay: PBMC assay: induction of cytokines INFα and INFγ; format: cell-based; details: Homo sapiens, PBMCs, 16 h incubation, mean from three different PBMC donors
wt hSTING = wt hSTING (Homo sapiens, UniProt Q86WV6); assay: Standard 293T reporter cell-based assay (IRF-3 dependent firefly luciferase reporter)
Sequence of wt hSTING (Q86WV6 whole entry H232R): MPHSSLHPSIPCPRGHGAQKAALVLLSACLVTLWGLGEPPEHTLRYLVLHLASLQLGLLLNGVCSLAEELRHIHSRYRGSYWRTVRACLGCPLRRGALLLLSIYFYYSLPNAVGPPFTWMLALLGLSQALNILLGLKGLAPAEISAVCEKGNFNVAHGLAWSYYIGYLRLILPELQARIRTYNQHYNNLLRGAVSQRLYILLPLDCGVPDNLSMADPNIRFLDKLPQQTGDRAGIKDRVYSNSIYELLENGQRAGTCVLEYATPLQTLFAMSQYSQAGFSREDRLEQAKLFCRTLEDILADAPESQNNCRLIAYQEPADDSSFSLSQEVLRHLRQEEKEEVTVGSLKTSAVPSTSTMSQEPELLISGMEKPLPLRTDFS
Experimental: Briefly, the day before testing cells were seeded onto 96-well white plates at density 250,000 cells per cm^2 in DMEM High glucose medium supplemented with 10% (v/v) heat inactivated fetal bovine albumin (FBS). The next day medium was removed, and cell were incubated for 7 h (37° C., 5% CO2) with serial dilution of compounds in medium. After incubation, Bright-Glo Luciferase Assay System reagent was added to cells and luminescence readout was performed on SPARK instrument (Tecan, Austria). EC50 values were determined using in software Prism (GraphPad, USA).

[3] = read-out: PBMC assay EC50 INF α
[4] = read-out: PBMC assay EC50 INF γ
[5] = read-out: Standard assay EC50, 293T reporter cells expressing wt hSTING, 7 h incubation, mean of three independent experiments in triplicates, SD <50%

Compound	EC50 (wt hSTING; [5]) [µM]	EC50 (wt hSTING) [µM]	CC50 at 16 h [1] [µM]	EC50 [2, 3] [µM]	EC50 [2, 4] [µM]
Cc1cn([C@@H]2O[C@@H]3COP(=O)(O)O[C@@H]4[C@H](O)[C@@H](COP(=O)(O)O[C@H]3[C@H]2O)O[C@H]4n2cnc3c(=O)[nH]c(N)nc32)c2ncnc(N)c12 [Compound 1a, 2-amino-9-((5R,7R,8R,12aR,14R,15R,15aS,16R)-14-(4-amino-5-methyl-7H-pyrrolo[2,3-d]pyrimidin-7-yl)-2,10,15,16-tetrahydroxy-2,10-dioxidooctahydro-12H-5,8-methanofuro[3,2-l][1,3,6,9,11]pentaoxa[2,10]diphosphacyclotetradecin-7-yl)-1,9-dihydro-6H-purin-6-one]	–	–	> 200	30.6	7.8
Nc1nc2c(ncn2[C@@H]2O[C@@H]3COP(=O)(O)O[C@H]4[C@@H](O)[C@H](n5cc(-c6cc7ccccc7c7ccccc67)c6c(N)ncnc65)O[C@@H]4COP(=O)(O)O[C@@H]2[C@@H]3O)c(=O)[nH]1 [Compound 1e, 2-amino-9-((5R,7R,8R,12aR,14R,15R,15aS,16R)-14-(4-amino-5-(phenanthren-9-yl)-7H-pyrrolo[2,3-d]pyrimidin-7-yl)-2,10,15,16-tetrahydroxy-2,10-dioxidooctahydro-12H-5,8-methanofuro[3,2-l][1,3,6,9,11]pentaoxa[2,10]diphosphacyclotetradecin-7-yl)-1,9-dihydro-6H-purin-6-one]	65.5	–	> 200	–	–
Nc1nc2c(ncn2[C@@H]2O[C@@H]3COP(=O)(O)O[C@H]4[C@@H](O)[C@H](n5cc(-c6ccco6)c6c(N)ncnc65)O[C@@H]4COP(=O)(O)O[C@@H]2[C@@H]3O)c(=O)[nH]1 [Compound 1i, 2-amino-9-((5R,7R,8R,12aR,14R,15R,15aS,16R)-14-(4-amino-5-(furan-2-yl)-7H-pyrrolo[2,3-d]pyrimidin-7-yl)-2,10,15,16-tetrahydroxy-2,10-dioxidooctahydro-12H-5,8-methanofuro[3,2-l][1,3,6,9,11]pentaoxa[2,10]diphosphacyclotetradecin-7-yl)-1,9-dihydro-6H-purin-6-one]	–	–	> 200	2.8	2.24
Nc1nc2c(ncn2[C@@H]2O[C@@H]3COP(=O)(O)O[C@H]4[C@@H](O)[C@H](n5cc(-c6cccs6)c6c(N)ncnc65)O[C@@H]4COP(=O)(O)O[C@@H]2[C@@H]3O)c(=O)[nH]1 [Compound 1j, 2-amino-9-((5R,7R,8R,12aR,14R,15R,15aS,16R)-14-(4-amino-5-(thiophen-2-yl)-7H-pyrrolo[2,3-d]pyrimidin-7-yl)-2,10,15,16-tetrahydroxy-2,10-dioxidooctahydro-12H-5,8-methanofuro[3,2-l][1,3,6,9,11]pentaoxa[2,10]diphosphacyclotetradecin-7-yl)-1,9-dihydro-6H-purin-6-one]	–	–	> 200	2.88	2.6
Nc1nc2c(ncn2[C@@H]2O[C@@H]3COP(=O)(O)O[C@H]4[C@@H](O)[C@H](n5ccc6c(N)ncnc65)O[C@@H]4COP(=O)(O)O[C@@H]2[C@@H]3O)c(=O)[nH]1 [Compound 1n, 2-amino-9-((5R,7R,8R,12aR,14R,15R,15aS,16R)-14-(4-amino-7H-pyrrolo[2,3-d]pyrimidin-7-yl)-2,10,15,16-tetrahydroxy-2,10-dioxidooctahydro-12H-5,8-methanofuro[3,2-l][1,3,6,9,11]pentaoxa[2,10]diphosphacyclotetradecin-7-yl)-1,9-dihydro-6H-urin-6-one, reference compound]	–	–	> 200	54.5	67.6
C#Cc1cn([C@@H]2O[C@@H]3COP(=O)(O)O[C@@H]4[C@H](O)[C@@H](OCP(=O)(O)O[C@H]3[C@H]2O)O[C@H]4n2cnc3c(=O)[nH]c(N)nc32)c2ncnc(N)c12 [Compound 53, 2-amino-9-((5R,7R,8R,12aR,14R,15R,15aS,16S)-14-(4-amino-5-ethynyl-7H-pyrrolo[2,3-d]pyrimidin-7-yl)-2,10,15,16-tetrahydroxy-2,10-dioxidooctahydro-5,8-methanofuro[3,2-l][1,3,6,8,11]pentaoxa[2,10]diphosphacyclotetradecin-7-yl)-1,9-dihydro-6H-purin-6-one, reference compound]	–	109	–	–	–

The next lines start with results.

EC50 (wt hSTING; [5]) [µM]	EC50 (wt hSTING) [µM]	Compound	CC50 at 16 h [1] [µM]	EC50 [2, 3] [µM]	EC50 [2, 4] [µM]
40.7	–	Nc1nc2c(ncn2[C@@H]2O[C@@H]3COP(=O)(O)O[C@H]4[C@@H](O)[C@H](n5cc(-c6ccccc6)c6c(N)ncnc65)O[C@@H]4COP(=O)(O)O[C@@H]2[C@@H]3O)c(=O)[nH]1 [Compound 1b, 2-amino-9-((5R,7R,8R,12aR,14R,15R,15aS,16R)-14-(4-amino-5-phenyl-7H-pyrrolo[2,3-d]pyrimidin-7-yl)-2,10,15,16-tetrahydroxy-2,10-dioxidooctahydro-12H-5,8-methanofuro[3,2-l][1,3,6,9,11]pentaoxa[2,10]diphosphacyclotetradecin-7-yl)-1,9-dihydro-6H-purin-6-one]	> 200	–	–
7.63	–	Nc1nc2c(ncn2[C@@H]2O[C@@H]3COP(=O)(O)O[C@H]4[C@@H](O)[C@H](n5cc(-c6ccc7ccccc7c6)c6c(N)ncnc65)O[C@@H]4COP(=O)(O)O[C@@H]2[C@@H]3O)c(=O)[nH]1 [Compound 1c, 2-amino-9-((5R,7R,8R,12aR,14R,15R,15aS,16R)-14-(4-amino-5-(naphthalen-2-yl)-7H-pyrrolo[2,3-d]pyrimidin-7-yl)-2,10,15,16-tetrahydroxy-2,10-dioxidooctahydro-12H-5,8-methanofuro[3,2-l][1,3,6,9,11]pentaoxa[2,10]diphosphacyclotetradecin-7-yl)-1,9-dihydro-6H-purin-6-one]	> 200	–	–
42.5	–	Nc1nc2c(ncn2[C@@H]2O[C@@H]3COP(=O)(O)O[C@H]4[C@@H](O)[C@H](n5cc(-c6cccc7ccccc67)c6c(N)ncnc65)O[C@@H]4COP(=O)(O)O[C@@H]2[C@@H]3O)c(=O)[nH]1 [Compound 1d, 2-amino-9-((5R,7R,8R,12aR,14R,15R,15aS,16R)-14-(4-amino-5-(naphthalen-1-yl)-7H-pyrrolo[2,3-d]pyrimidin-7-yl)-2,10,15,16-tetrahydroxy-2,10-dioxidooctahydro-12H-5,8-methanofuro[3,2-l][1,3,6,9,11]pentaoxa[2,10]diphosphacyclotetradecin-7-yl)-1,9-dihydro-6H-purin-6-one]	> 200	–	–
2.95	–	Nc1nc2c(ncn2[C@@H]2O[C@@H]3COP(=O)(O)O[C@H]4[C@@H](O)[C@H](n5cc(-c6ccc(-c7ccccc7)cc6)c6c(N)ncnc65)O[C@@H]4COP(=O)(O)O[C@@H]2[C@@H]3O)c(=O)[nH]1 [Compound 1f, 9-((5R,7R,8R,12aR,14R,15R,15aS,16R)-14-(5-([1,1′-biphenyl]-4-yl)-4-amino-7H-pyrrolo[2,3-d]pyrimidin-7-yl)-2,10,15,16-tetrahydroxy-2,10-dioxidooctahydro-12H-5,8-methanofuro[3,2-l][1,3,6,9,11]pentaoxa[2,10]diphosphacyclotetradecin-7-yl)-2-amino-1,9-dihydro-6H-purin-6-one]	> 200	7.4	2
3.06	–	Nc1nc2c(ncn2[C@@H]2O[C@@H]3COP(=O)(O)O[C@H]4[C@@H](O)[C@H](n5cc(-c6ccc(-c7ccc8ccccc8c7)cc6)c6c(N)ncnc65)O[C@@H]4COP(=O)(O)O[C@@H]2[C@@H]3O)c(=O)[nH]1 [Compound 1g, 2-amino-9-((5R,7R,8R,12aR,14R,15R,15aS,16R)-14-(4-amino-5-(4-(naphthalen-2-yl)phenyl)-7H-pyrrolo[2,3-d]pyrimidin-7-yl)-2,10,15,16-tetrahydroxy-2,10-dioxidooctahydro-12H-5,8-methanofuro[3,2-l][1,3,6,9,11]pentaoxa[2,10]diphosphacyclotetradecin-7-yl)-1,9-dihydro-6H-purin-6-one]	> 200	5.1	1.8
19.1	–	Nc1nc2c(ncn2[C@@H]2O[C@@H]3COP(=O)(O)O[C@H]4[C@@H](O)[C@H](n5cc(-c6cccc7c6oc6ccccc67)c6c(N)ncnc65)O[C@@H]4COP(=O)(O)O[C@@H]2[C@@H]3O)c(=O)[nH]1 [Compound 1m, 2-amino-9-((5R,7R,8R,12aR,14R,15R,15aS,16R)-14-(4-amino-5-(dibenzo[b,d]furan-4-yl)-7H-pyrrolo[2,3-d]pyrimidin-7-yl)-2,10,15,16-tetrahydroxy-2,10-dioxidooctahydro-12H-5,8-methanofuro[3,2-l][1,3,6,9,11]pentaoxa[2,10]diphosphacyclotetradecin-7-yl)-1,9-dihydro-6H-purin-6-one]	> 200	–	–
